# Source: patent US8063053B2, “1-(arylsulfonyl)-4-(piperazin-1-yl)-1H-benzimidazoles as 5-hydroxytryptamine-6 ligands” (Wyeth LLC, priority 2008, dated 2011)
# Where two headings read alike, the source gives them in different places.
# Target: T1, serotonin 5-HT6 receptor subtype (Homo sapiens, UniProt P50406)
# T1 construct: host or cells: CHO-Dukx-A2 cells, clone 50-7
# Experiment: 5-HT6 binding affinity ([3H]-LSD SPA binding)
# T1 sequence (P50406 whole entry): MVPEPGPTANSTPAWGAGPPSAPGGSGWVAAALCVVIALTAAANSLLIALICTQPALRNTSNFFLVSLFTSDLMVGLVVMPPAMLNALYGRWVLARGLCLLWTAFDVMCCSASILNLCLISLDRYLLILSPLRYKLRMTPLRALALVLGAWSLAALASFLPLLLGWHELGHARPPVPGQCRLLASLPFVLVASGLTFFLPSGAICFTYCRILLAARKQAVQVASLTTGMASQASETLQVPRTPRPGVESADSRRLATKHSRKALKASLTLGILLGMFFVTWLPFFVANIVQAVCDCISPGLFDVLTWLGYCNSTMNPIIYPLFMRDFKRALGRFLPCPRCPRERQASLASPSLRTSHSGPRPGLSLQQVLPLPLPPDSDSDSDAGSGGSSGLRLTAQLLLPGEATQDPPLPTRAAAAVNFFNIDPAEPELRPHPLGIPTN
Ki (read-out: 5-HT6 binding Ki) [nM],Compound,also measured
3.17,"Cc1nc2c(N3CCNC(C)C3)cccc2n1S(=O)(=O)c1ccccc1 (stereo in doubt) [Example 114, 2-methyl-4-[(3R)-3-methylpiperazin-1-yl]-1-(phenylsulfonyl)-1H-benzimidazole]",–
1.12,"Cc1nc2c(N3CCNC(C)C3)cccc2n1S(=O)(=O)c1cccc2ccccc12 (stereo in doubt) [Example 115, 2-methyl-4-[(3R)-3-methylpiperazin-1-yl]-1-(1-naphthylsulfonyl)-1H-benzimidazole]",–
0.951,"Cc1nc2c(N3CCNC(C)C3)cccc2n1S(=O)(=O)c1ccccc1 (stereo in doubt) [Example 116, 2-methyl-4-[(3S)-3-methylpiperazin-1-yl]-1-(phenylsulfonyl)-1H-benzimidazole]",–
0.305,"Cc1nc2c(N3CCNC(C)C3)cccc2n1S(=O)(=O)c1cccc2ccccc12 (stereo in doubt) [Example 117, 2-methyl-4-[(3S)-3-methylpiperazin-1-yl]-1-(1-naphthylsulfonyl)-1H-benzimidazole]",–
0.064,"CN1CCN(c2cccc3c2ncn3S(=O)(=O)c2cccc3ccccc23)CC1 [Example 1, 4-(4-methylpiperazin-1-yl)-1-(naphthalen-1-ylsulfonyl)-1H-benzo[d]imidazole]",–
0.165,"O=S(=O)(c1cccc2ccccc12)n1cnc2c(N3CCNCC3)cccc21 [Example 2, 1-(naphthalen-1-ylsulfonyl)-4-(piperazin-1-yl)-1H-benzo[d]imidazole]",–
–,"O=S(=O)(c1ccccc1)n1cnc2c(N3CCNCC3)cccc21 [Example 3, 1-(phenylsulfonyl)-4-(piperazin-1-yl)-1H-benzo[d]imidazole]",Ki: 1.36 nM
0.025,"Cc1nc2c(N3CCNCC3)cccc2n1S(=O)(=O)c1cccc2ccccc12 [Example 4, 2-methyl-1-(1-naphthylsulfonyl)-4-piperazin-1-yl-1H-benzimidazole]",–
–,"Cc1nc2c(N3CCNCC3)cccc2n1S(=O)(=O)c1ccccc1 [Example 5, 2-methyl-1-(phenylsulfonyl)-4-piperazin-1-yl-1H-benzimidazole]","Ki (CHO-Dukx-A2 cells expressing 5-HT6 receptor (clone 50-7), 3 nM [3H]-LSD, PVT WGA SPA beads, Ki by Cheng-Prusoff, read-out: 5-HT6 binding Ki): 0.53 nM"
0.447,"CCc1nc2c(N3CCNCC3)cccc2n1S(=O)(=O)c1ccccc1 [Example 6, 2-ethyl-1-(phenylsulfonyl)-4-piperazin-1-yl-1H-benzimidazole]",–
0.394,"CCN1CCN(c2cccc3c2ncn3S(=O)(=O)c2ccccc2)CC1 [Example 7, 4-(4-ethylpiperazin-1-yl)-1-(phenylsulfonyl)-1H-benzimidazole]",–
1.1,"CCCCc1nc2c(N3CCNCC3)cccc2n1S(=O)(=O)c1ccccc1 [Example 8, 2-butyl-1-(phenylsulfonyl)-4-piperazin-1-yl-1H-benzimidazole]",–
0.004,"Cc1nc2c(N3CCN(C)CC3)cccc2n1S(=O)(=O)c1cccc2ccccc12 [Example 9, 2-methyl-4-(4-methylpiperazin-1-yl)-1-(1-naphthylsulfonyl)-1H-benzimidazole]",–
1.32,"O=S(=O)(c1ccc(Cl)cc1)n1cnc2c(N3CCNCC3)cccc21 [Example 10, 1-[(4-chlorophenyl)sulfonyl]-4-piperazin-1-yl-1H-benzimidazole]",–
0.269,"O=S(=O)(c1ccccc1Cl)n1cnc2c(N3CCNCC3)cccc21 [Example 11, 1-[(2-chlorophenyl)sulfonyl]-4-piperazin-1-yl-1H-benzimidazole]",–
1.66,"CN1CCN(c2cccc3c2ncn3S(=O)(=O)c2ccccc2)CC1 [Example 12, 4-(4-methylpiperazin-1-yl)-1-(phenylsulfonyl)-1H-benzimidazole]",–
1.82,"COc1ccc(S(=O)(=O)n2c(C)nc3c(N4CCNCC4)cccc32)cc1 [Example 13, 1-[(4-methoxyphenyl)sulfonyl]-2-methyl-4-piperazin-1-yl-1H-benzimidazole]",–
2.3,"Cc1nc2c(N3CCNCC3)cccc2n1S(=O)(=O)c1cccc(OC(F)(F)F)c1 [Example 14, 2-methyl-4-piperazin-1-yl-1-{[3-(trifluoromethoxy)phenyl]sulfonyl}-1H-benzimidazole]",–
0.99,"Cc1nc2c(N3CCNCC3)cccc2n1S(=O)(=O)c1ccccc1Cl [Example 15, 1-[(2-chlorophenyl)sulfonyl]-2-methyl-4-piperazin-1-yl-1H-benzimidazole]",–
0.99,"Cc1nc2c(N3CCNCC3)cccc2n1S(=O)(=O)c1cccc(Cl)c1 [Example 16, 1-[(3-chlorophenyl)sulfonyl]-2-methyl-4-piperazin-1-yl-1H-benzimidazole]",–
6,"Cc1nc2c(N3CCNCC3)cccc2n1S(=O)(=O)c1ccc(Cl)cc1 [Example 17, 1-[(4-chlorophenyl)sulfonyl]-2-methyl-4-piperazin-1-yl-1H-benzimidazole]",–
1.3,"Cc1cccc(S(=O)(=O)n2c(C)nc3c(N4CCNCC4)cccc32)c1 [Example 18, 2-methyl-1-[(3-methylphenyl)sulfonyl]-4-piperazin-1-yl-1H-benzimidazole]",–
4.3,"O=S(=O)(c1cccc(Cl)c1)n1cnc2c(N3CCNCC3)cccc21 [Example 19, 1-[(3-chlorophenyl)sulfonyl]-4-piperazin-1-yl-1H-benzimidazole]",–

Ki (read-out: 5-HT6 binding Ki) [nM],Compound,also measured
25,"O=S(=O)(c1ccc(F)cc1)n1cnc2c(N3CCNCC3)cccc21 [Example 20, 1-[(4-fluorophenyl)sulfonyl]-4-piperazin-1-yl-1H-benzimidazole]",–
3,"O=S(=O)(c1ccccc1F)n1cnc2c(N3CCNCC3)cccc21 [Example 21, 1-[(2-fluorophenyl)sulfonyl]-4-piperazin-1-yl-1H-benzimidazole]",–
1.5,"O=S(=O)(c1cccc(F)c1)n1cnc2c(N3CCNCC3)cccc21 [Example 22, 1-[(3-fluorophenyl)sulfonyl]-4-piperazin-1-yl-1H-benzimidazole]",–
10.6,"O=S(=O)(c1ccc2ccccc2c1)n1cnc2c(N3CCNCC3)cccc21 [Example 23, 1-(2-naphthylsulfonyl)-4-piperazin-1-yl-1H-benzimidazole]",–
15.1,"COc1ccc(S(=O)(=O)n2cnc3c(N4CCNCC4)cccc32)cc1 [Example 24, 1-[(4-methoxyphenyl)sulfonyl]-4-piperazin-1-yl-1H-benzimidazole]",–
89,"O=S(=O)(c1ccc(OC(F)(F)F)cc1)n1cnc2c(N3CCNCC3)cccc21 [Example 25, 4-piperazin-1-yl-1-{[4-(trifluoromethoxy)phenyl]sulfonyl}-1H-benzimidazole]",–
1.7,"Cc1nc2c(N3CCNCC3)cccc2n1S(=O)(=O)c1cccc(F)c1 [Example 26, 1-[(3-fluorophenyl)sulfonyl]-2-methyl-4-piperazin-1-yl-1H-benzimidazole]",–
2.5,"Cc1ccc(S(=O)(=O)n2cnc3c(N4CCNCC4)cccc32)cc1 [Example 27, 1-[(4-methylphenyl)sulfonyl]-4-piperazin-1-yl-1H-benzimidazole]",–
1.95,"O=S(=O)(c1cccc(OC(F)(F)F)c1)n1cnc2c(N3CCNCC3)cccc21 [Example 28, 4-piperazin-1-yl-1-{[3-(trifluoromethoxy)phenyl]sulfonyl}-1H-benzimidazole]",–
11.7,"O=S(=O)(c1ccc(F)c(Cl)c1)n1cnc2c(N3CCNCC3)cccc21 [Example 29, 1-[(3-chloro-4-fluorophenyl)sulfonyl]-4-piperazin-1-yl-1H-benzimidazole]",–
15.8,"Cc1nc2c(N3CCNCC3)cccc2n1S(=O)(=O)c1ccc(OC(F)(F)F)cc1 [Example 30, 2-methyl-4-piperazin-1-yl-1-{[4-(trifluoromethoxy)phenyl]sulfonyl}-1H-benzimidazole]",–
0.467,"Cc1ccc(S(=O)(=O)n2c(C)nc3c(N4CCNCC4)cccc32)cc1 [Example 31, 2-methyl-1-[(4-methylphenyl)sulfonyl]-4-piperazin-1-yl-1H-benzimidazole]",–
2.5,"Cc1nc2c(N3CCNCC3)cccc2n1S(=O)(=O)c1ccccc1F [Example 32, 1-[(2-fluorophenyl)sulfonyl]-2-methyl-4-piperazin-1-yl-1H-benzimidazole]",–
0.72,"O=S(=O)(c1ccccc1OC(F)(F)F)n1cnc2c(N3CCNCC3)cccc21 [Example 33, 4-piperazin-1-yl-1-{[2-(trifluoromethoxy)phenyl]sulfonyl}-1H-benzimidazole]",–
1.2,"COc1cccc(S(=O)(=O)n2cnc3c(N4CCNCC4)cccc32)c1 [Example 34, 1-[(3-methoxyphenyl)sulfonyl]-4-piperazin-1-yl-1H-benzimidazole]",–
1.1,"Cc1ccc(S(=O)(=O)n2cnc3c(N4CCNCC4)cccc32)c2ccccc12 [Example 35, 1-[(4-methyl-1-naphthyl)sulfonyl]-4-piperazin-1-yl-1H-benzimidazole]",–
1.11,"Cc1cccc(S(=O)(=O)n2cnc3c(N4CCNCC4)cccc32)c1 [Example 36, 1-[(3-methylphenyl)sulfonyl]-4-piperazin-1-yl-1H-benzimidazole]",–
10.5,"Cc1nc2c(N3CCNCC3)cccc2n1S(=O)(=O)c1ccc(F)cc1 [Example 38, 1-[(4-fluorophenyl)sulfonyl]-2-methyl-4-piperazin-1-yl-1H-benzimidazole]",–
1.15,"Cc1ccccc1S(=O)(=O)n1cnc2c(N3CCNCC3)cccc21 [Example 39, 1-[(2-methylphenyl)sulfonyl]-4-piperazin-1-yl-1H-benzimidazole]",–
18.9,"O=S(=O)(c1ccc(C(F)(F)F)cc1)n1cnc2c(N3CCNCC3)cccc21 [Example 40, 4-piperazin-1-yl-1-{[4-(trifluoromethyl)phenyl]sulfonyl}-1H-benzimidazole]",–
1.06,"O=S(=O)(c1ccccc1C(F)(F)F)n1cnc2c(N3CCNCC3)cccc21 [Example 41, 4-piperazin-1-yl-1-{[2-(trifluoromethyl)phenyl]sulfonyl}-1H-benzimidazole]",–
1.13,"O=S(=O)(c1cccc(C(F)(F)F)c1)n1cnc2c(N3CCNCC3)cccc21 [Example 42, 4-piperazin-1-yl-1-{[3-(trifluoromethyl)phenyl]sulfonyl}-1H-benzimidazole]",–
1.05,"Cc1nc2c(N3CCNCC3)cccc2n1S(=O)(=O)c1ccc2ccccc2c1 [Example 43, 2-methyl-1-(2-naphthylsulfonyl)-4-piperazin-1-yl-1H-benzimidazole]",–
